Values of other authors in patent publication US20050159419A1, “Compositions of a cyclooxygenase-2 selective inhibitor and a central nervous system stimulant for the treatment of central nervous system damage” (Pharmacia Corporation, priority 2003, published 2005).

Columns and labels:
human stroke victims = conditions: coupled with physical therapy, compared to stroke victims receiving only physical therapy

## CC(N)Cc1ccccc1 (centres unmarked) [amphetamine]
Human stroke victims
  motor recovery: accelerated motor recovery
Infarcted rats
  alternative circuit activation: promoted alternative circuit activation
